Results: ChEMBL document CHEMBL6178002, “Identification of a RANKL/TNF-α Dual-Inhibitor as a Potential Disease-Modifying Agent for the Treatment of Knee Osteoarthritis” (J Med Chem, 2025)

How the values were obtained:
[1] = Cytotoxicity against bone marrow macrophage cells (unknown origin) assessed as cell viability at 10 uM incubated for 24 hrs by CCK8 assay relative to control; assay type: toxicity, cell-based; details: read-out: Activity
[2] = Inhibition of RANKL/M-CSF-induced osteoclastogenesis in male C57/BL6 mouse bone marrow cells at 1 uM incubated for 5 to 7 days by TRAP staining based analysis relative to control; assay type: functional; details: C57/BL6, Bone marrow cell, time 5-7 day
[3] = Inhibition of RANKL/M-CSF-induced osteoclastogenesis in male C57/BL6 mouse bone marrow cells at 0.1 uM incubated for 5 to 7 days by TRAP staining based analysis relative to control; assay type: functional; details: C57/BL6, Bone marrow cell, time 5-7 day
[4] = Anti-osteoclastogenic activity in bone marrow cells (unknown origin) assessed as inhibition of RANKL/M-CSF-induced osteoclast differentiation measured after 5 days by TRAP staining based analysis; assay type: functional; details: Bone marrow cell, 120 h

Row | SMILES | viability at 24 h, 10 µM [1] | inhibition at 1 µM [2] | inhibition at 0.1 µM [3] | IC50 [4]
1 | Cc1cccc(C)c1NC(=O)[C@@H]1Cc2c([nH]c3ccccc23)C2(CN(c3ccc(C(F)(F)F)cc3)C2)N1 | 117% | 43.7% | 15.4% | –
2 | Cc1ccccc1NC(=O)[C@@H]1Cc2c3ccccc3[nH]c2[C@]2(C[C@H](c3ccccc3)C2)N1 | 112% | 66.5% | 16.5% | –
3 | O=C(Nc1ccccc1F)[C@@H]1Cc2c3ccccc3[nH]c2[C@]2(C[C@H](c3ccccc3)C2)N1 | 63.6% | 40.7% | 17.6% | –
4 | COc1cccc(OC)c1NC(=O)[C@@H]1Cc2c3ccccc3[nH]c2[C@]2(C[C@@H](c3ccccc3)C2)N1 | 70.2% | 32.3% | 16.5% | –
5 | Cc1ccccc1NC(=O)[C@@H]1Cc2c3ccccc3[nH]c2[C@]2(C[C@@H](c3ccccc3)C2)N1 | 102% | 54.4% | 23% | –
6 | CN(C)c1ccccc1NC(=O)[C@@H]1Cc2c3ccccc3[nH]c2[C@]2(C[C@@H](c3ccccc3)C2)N1 | 109% | 89.9% | 32.2% | –
7 | O=C(Nc1ccccc1F)[C@@H]1Cc2c3ccccc3[nH]c2[C@]2(C[C@@H](c3ccccc3)C2)N1 | 101% | 70.1% | 34.4% | –
8 | Cc1cccc(C)c1NC(=O)[C@@H]1Cc2c3ccccc3[nH]c2[C@]2(C[C@@H](c3ccccc3)C2)N1 | 105% | 55.1% | 36.2% | –
9 | Cc1cccc(C)c1NC(=O)[C@@H]1Cc2c3ccccc3[nH]c2[C@]2(C[C@H](c3ccccc3)C2)N1 | 95.1% | 32.3% | 29.2% | –
10 | CCc1ccc(N2CC3(C2)N[C@H](C(=O)Nc2c(C)cccc2C)Cc2c3[nH]c3ccccc23)cc1 | 101% | 35.9% | 25.1% | –
11 | COc1ccc(N2CC3(C2)N[C@H](C(=O)Nc2c(C)cccc2C)Cc2c3[nH]c3ccccc23)cc1 | 102% | 48.6% | 34.6% | –
12 | Cc1cccc(C)c1NC(=O)[C@@H]1Cc2c([nH]c3ccccc23)[C@@](C)(CCc2ccccc2)N1 | 106% | 52.1% | 23.4% | –
13 | Cc1cccc(C)c1NC(=O)[C@@H]1Cc2c([nH]c3ccccc23)[C@](C)(CCc2ccccc2)N1 | 117% | 48.3% | 37.3% | –
14 | O=C(Nc1ccccn1)[C@@H]1Cc2c3ccccc3[nH]c2[C@]2(C[C@@H](c3ccccc3)C2)N1 | 127% | 41.2% | 16.1% | –
15 | COc1cccc(OC)c1NC(=O)[C@@H]1Cc2c3ccccc3[nH]c2[C@]2(C[C@H](c3ccccc3)C2)N1 | 95.7% | 35.9% | 11.5% | –
16 | Cc1cccnc1NC(=O)[C@@H]1Cc2c3ccccc3[nH]c2[C@]2(C[C@@H](c3ccccc3)C2)N1 | 160% | 58.3% | 35.9% | –

Row | SMILES | viability at 24 h, 10 µM [1] | inhibition at 1 µM [2] | inhibition at 0.1 µM [3] | IC50 [4]
17 | CC(C)c1ccccc1NC(=O)[C@@H]1Cc2c3ccccc3[nH]c2[C@]2(C[C@@H](c3ccccc3)C2)N1 | 116% | 62.5% | 26.5% | –
18 | Cc1cccc(C)c1NC(=O)[C@@H]1Cc2c([nH]c3ccccc23)C2(CN(c3ccc(S(C)(=O)=O)cc3)C2)N1 | 106% | 52.1% | 23.4% | –
19 | CC(C)c1ccccc1NC(=O)[C@@H]1Cc2c3ccccc3[nH]c2[C@]2(C[C@H](c3ccccc3)C2)N1 | 103% | 37.5% | 12.7% | –
20 | Cc1cccc(C)c1NC(=O)[C@@H]1Cc2c([nH]c3ccccc23)C2(CN(c3ccc(F)cc3)C2)N1 | 119% | 57.4% | 23.1% | –
21 | Cc1cccnc1NC(=O)[C@@H]1Cc2c3ccccc3[nH]c2[C@]2(C[C@H](c3ccccc3)C2)N1 | 159% | 49.8% | 16.7% | –
22 | Cc1cccc(C)c1NC(=O)[C@@H]1Cc2c([nH]c3ccccc23)C2(CCN(c3ccccc3)CC2)N1 | 120% | 30.2% | – | –
23 | CC(C)c1cccc(C(C)C)c1NC(=O)[C@@H]1Cc2c3ccccc3[nH]c2[C@]2(C[C@H](c3ccccc3)C2)N1 | 141% | 62% | 20.7% | –
24 | Cc1cccc(C)c1NC(=O)[C@@H]1Cc2c([nH]c3ccccc23)C2(CN(c3ccc(C#N)cc3)C2)N1 | 105% | 48.3% | 37.3% | –
25 | Cc1cccc(C)c1NC(=O)[C@H]1Cc2c([nH]c3ccccc23)C2(CN(c3ccccc3)C2)N1 | 119% | 78.3% | 42.9% | –
26 | CC(C)c1cccc(C(C)C)c1NC(=O)[C@@H]1Cc2c3ccccc3[nH]c2[C@]2(C[C@@H](c3ccccc3)C2)N1 | 115% | 66.9% | 23.6% | –
27 | Cc1cccc(C)c1NC(=O)[C@H]1Cc2c3ccccc3[nH]c2[C@]2(C[C@H](c3ccccc3)C2)N1 | 105% | 45.7% | 12.3% | –
28 | Cc1cccc(C)c1NC(=O)[C@@H]1Cc2c([nH]c3ccccc23)C2(CN(c3cccnc3)C2)N1 | 107% | 52.5% | 11.5% | –
29 | CN(C)c1ccccc1NC(=O)[C@@H]1Cc2c3ccccc3[nH]c2[C@]2(C[C@H](c3ccccc3)C2)N1 | 66.3% | 58.4% | 10.2% | –
30 | Cc1cccc(C)c1NC(=O)[C@H]1Cc2c3ccccc3[nH]c2[C@]2(C[C@@H](c3ccccc3)C2)N1 | 116% | 23.8% | – | –
31 | Cc1cc2occ(CN(C)CCN(C)Cc3cn(-c4cccc(C(F)(F)F)c4)c4ccccc34)c(=O)c2cc1C | 3.8% | 56.1% | 18.4% | 1 µM
32 | O=C(Nc1ccccn1)[C@@H]1Cc2c3ccccc3[nH]c2[C@]2(C[C@H](c3ccccc3)C2)N1 | 149% | 44.2% | 13.1% | –
